Experimental data published in patent US10041937B2, “Macrophage identification agent, and identification method, sorting method, evaluation method, screening method and kit using the macrophage identifier agent” (CANON KABUSHIKI KAISHA, priority 2013, dated 2018).

Tested on: M1 macrophages and M2 macrophages differentiated from mouse bone marrow cells
Assay: Subtype identification by staining and flow cytometry of M1 and M2 macrophages differentiated from mouse bone marrow cells
Type: cell-based, Balb/c mouse
Method: The culture of subtypes was performed according to a protocol described in NPL 7. Specifically, bone marrow cells collected from the femur of a Balb/c mouse of 8 to 10 weeks old were dispersed to a concentration of 1×10^6/mL in an IMDM containing 20% FBS and 1% P/S, and 1×10^7 cells were seeded in a 100 mm dish. After further adding an M-CSF (manufactured by Pepro Tech) thereto to a concentration of 50 ng/mL, the cells were incubated for 3 to 4 days in the presence of 5% CO2 at 37° C., so as to differentiate macrophage precursor cells to macrophages. After exchanging the medium, the M-CSF was added to a concentration of 50 ng/mL, and the incubation was performed for further 3 to 4 days in the presence of 5% CO2 at 37° C., and then, the resulting cells were differentiated to macrophage. By adding 200 ng of interferon-γ and 1 μg of […] (both manufactured by Pepro Tech) to the IMDM containing 5% FBS and 1% P/S, the cells were differentiated to the subtype M1. Besides, by adding 100 ng of IL-4 to the IMDM containing 5% FBS and 1% P/S, the cells were differentiated to the subtype M2. After performing the incubation for further 3 days in the presence of 5% CO2 at 37° C., the resultant was rinsed with PBS, and PBS containing 0.25% trypsin and 1 mM EDTA (ethylenediaminetetraacetic acid) was used for collecting, from the dish, the macrophages having been differentiated to the subtypes M1 and M2.
Thereafter, the tube was centrifuged at 180 G for 10 minutes to remove the supernatant, a dye for identifying dead cells (aqua fluorescent reactive dye, manufactured by Invitrogen; which is hereinafter sometimes abbreviated as aqua) was added thereto, and the resultant was incubated at 4° C. for 10 minutes. Subsequently, the tube was centrifuged at 180 G for 10 minutes to remove the supernatant, cells were suspended in a FACS buffer to be analyzed by using FACSCanto (trademark) II flow cytometry apparatus manufactured by BD.
The analysis was performed on a cell population showing a low signal for the aqua, so as to analyze a cell population from which dead cells were eliminated. […] A histogram was prepared by plotting fluorescence intensity obtained in the FITC channel on the abscissa and plotting the number of cells at each fluorescence intensity on the ordinate, which is shown in FIG. 2.
Histograms were prepared by plotting fluorescence intensities obtained in the respective channels on the abscissa and plotting the numbers of cells at each fluorescence intensity on the ordinate. A difference between a fluorescence intensity (FM1) at a peak top of the histogram of the M1 macrophage and a fluorescence intensity (FM2) at a peak top of the histogram of the M2 macrophage is divided by a sum of a peak width (WM1) of the histogram of the M1 macrophage and a peak width (WM2) of the histogram of the M2 macrophage, so as to obtain a resolution R, which was used as an index of the identification ability for a subtype (see the following expression (1)). Resolution R=|FM1−FM2|/(WM1+WM2) Expression (1)

[1] = R=|FM1−FM2|/(WM1+WM2), compound 1 μM
[2] = fluorescence intensity at peak top of histogram, compound 1 μM, 37° C., 30 minutes
[3] = M1 vs M2 macrophages from mouse bone marrow cells, general formula (10) dyes (Table 8)
[4] = class based on resolution R, general formula (10) dyes (Table 8)
[5] = mouse bone marrow-derived M1 macrophages, channel listed per compound, general formula (10) dyes (Table 8)
[6] = mouse bone marrow-derived M2 macrophages, channel listed per compound, general formula (10) dyes (Table 8)

Compound	Resolution ratio R [1]	Peak position of M1 macrophage [2]	Peak position of M2 macrophage [2]	Evaluation of macrophage subtype identification (rated from resolution R)	also measured
CCN1c2ccc(/C=C3/SC(=S)N(CCC(=O)O)C3=O)cc2CC1C (stereo not shown) [(56)]	0.207	4.90	6.36	B (the compound is good in the subtype identification (namely, the resolution R is 0.15 or more and less than 0.5))	–
CCCCCCCCN1C(=O)/C(=c2\s/c(=C/c3ccc4c(c3)C3CCCC3N4c3ccc(C=C(c4ccccc4)c4ccccc4)cc3)c(=O)n2CC(=O)O)SC1=S (stereo not shown) [(38)]	0.724	3.74	1.63	A (The compound is very good in the subtype identification (namely, the resolution R is 0.5 or more))	–
O=C(O)Cn1c(=O)/c(=C\c2ccc3c(c2)C2CCCC2N3Cc2ccccc2)s/c1=C1/SC(=S)N(Cc2ccccc2)C1=O (stereo not shown) [(53)]	0.650	128	190	A (The compound is very good in the subtype identification (namely, the resolution R is 0.5 or more))	–
CC1(C)C(/C=C/c2ccc3c(c2)C2CCCC2N3c2ccc(C=C(c3ccccc3)c3ccccc3)cc2)=[N+](CCC(=O)O)c2ccccc21 (stereo not shown) [(59)]	0.733	188	325	A (The compound is very good in the subtype identification (namely, the resolution R is 0.5 or more))	–
CCN(CC)c1ccc2cc(C(=O)c3cc4ccc(N(CC)CC)cc4oc3=O)c(=O)oc2c1 [comparative compound (4), reference compound]	–	–	–	–	Resolution ratio R [3]: 0.053; Evaluation of macrophage subtype identification [4]: C (the compound cannot identify the subtypes (namely, the resolution R is less than 0.15)); difference in the staining intensity between the M1 macrophages and the M2 macrophages / identification (mouse bone marrow derived): no difference in the staining intensity; Peak position of M1 macrophage [5]: 0.88; Peak position of M2 macrophage [6]: 1.05; Selectivity (subtype strongly stained, general formula (10) dyes (Table 8)): No
CCN(CC)c1ccc2cc(-c3nc4ccc(OC)cc4o3)c(=O)oc2c1 [(132)]	–	–	–	–	Resolution ratio R [3]: 0.624; Evaluation of macrophage subtype identification [4]: A (The compound is very good in the subtype identification (namely, the resolution R is 0.5 or more)); Peak position of M1 macrophage [5]: 30.3; Peak position of M2 macrophage [6]: 53.8
O=C(O)CN1C(=O)/C(=C\c2ccc3c(c2)C2CCCC2N3Cc2ccccc2)SC1=S (stereo not shown) [(28)]	0.431	9.54	15.8	B (the compound is good in the subtype identification (namely, the resolution R is 0.15 or more and less than 0.5))	–
CC1(C)C(/C=C/C=C/C=C/C=C2\N(CCCCS(=O)(=O)[O-])c3ccccc3C2(C)C)=[N+](CCCCS(=O)(=O)[O-])c2ccccc21.[Na+] [(88)]	–	–	–	–	Resolution ratio R (M1 vs M2 macrophages from mouse bone marrow cells, general formula (6) dyes (Table 7)): 0.241; Evaluation of macrophage subtype identification (class based on resolution R, general formula (6) dyes (Table 7)): B (the compound is good in the subtype identification (namely, the resolution R is 0.15 or more and less than 0.5)); Peak position of M1 macrophage (mouse bone marrow-derived M1 macrophages, channel listed per compound, general formula (6) dyes (Table 7)): 0.95; Peak position of M2 macrophage (mouse bone marrow-derived M2 macrophages, channel listed per compound, general formula (6) dyes (Table 7)): 1.48
N#C/C(=C\C=C\c1ccc2c(c1)C1CCCC1N2c1ccc(C=C(c2ccccc2)c2ccccc2)cc1)C(=O)O (stereo not shown) [(74)]	0.538	2.52	1.25	A (The compound is very good in the subtype identification (namely, the resolution R is 0.5 or more))	–
CCN1c2ccc(/C=C3/SC(=S)N(CC(=O)O)C3=O)cc2C2CCCC21 (stereo not shown) [(26)]	0.202	3.51	4.49	B (the compound is good in the subtype identification (namely, the resolution R is 0.15 or more and less than 0.5))	–
CC1=NN(c2ccc(C(=O)O)cc2)C(=O)/C1=C\c1ccc2c(c1)C1CCCC1N2c1ccccc1 (stereo not shown) [(35)]	0.192	1.15	1.29	B (the compound is good in the subtype identification (namely, the resolution R is 0.15 or more and less than 0.5))	–
